The target in the test is C-C chemokine receptor type 2 (Homo sapiens, UniProt P41597). Nature of the test: Receptor Binding Assay.

For orientation: IC50 means the concentration that inhibits the measured activity by half.

Sequence of C-C chemokine receptor type 2 (P41597 whole entry): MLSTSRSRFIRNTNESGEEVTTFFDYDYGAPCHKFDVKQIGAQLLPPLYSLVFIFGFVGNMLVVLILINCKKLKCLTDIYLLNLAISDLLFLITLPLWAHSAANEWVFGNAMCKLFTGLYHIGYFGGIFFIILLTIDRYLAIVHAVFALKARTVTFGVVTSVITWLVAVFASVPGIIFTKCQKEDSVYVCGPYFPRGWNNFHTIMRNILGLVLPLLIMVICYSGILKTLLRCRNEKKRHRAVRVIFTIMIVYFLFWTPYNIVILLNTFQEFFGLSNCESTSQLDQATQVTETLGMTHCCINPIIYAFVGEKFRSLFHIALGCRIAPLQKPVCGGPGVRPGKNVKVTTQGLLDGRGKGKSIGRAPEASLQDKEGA

On to `C[S+]([O-])CC(O)[C@H]1CC[C@@H](N2CC(NC(=O)CNc3ncnc4ccc(C(F)(F)F)cc34)C2)CC1` (some centres not stated) [US9062048, 21], for which the concentration for half-maximal inhibition (IC50) amounted to 172 nM.

Turning to `CCC(NC(=O)NC)[C@H]1CC[C@@H](N2CC(NC(=O)CNc3ncnc4ccc(C(F)(F)F)cc34)C2)CC1` (some centres not stated) [US9062048, 142], the IC50 is 1230 nM. Against the preceding compound, the IC50 is about 7.2-fold higher.

The values are drawn from BindingDB's records for patent US9062048 (Janssen Pharmaceutica, 2015).
